Results from patent publication US6620817B1, “[5-CHLORO-6-PHENYL-2-(4-TRIFLUOROMETHYLPHENYL)-4-PYRIMIDINYLAMINO]ACETAMIDE DERIVATIVES, PROCESS FOR PRODUCING THE SAME, MEDICINAL COMPOSITIONS CONTAINING THE SAME AND INTERMEDIATE OF THESE COMPOUNDS” (Dainippon Pharmaceutical Co., Ltd., priority 1999, dated 2003).

Columns and labels:
[1] = system: collagen-induced arthritis; test: Collagen-induced arthritis inhibitory test; format: in vivo, mice; settings: for Inhibitory rate: score of arthritis on the 52nd day after the first immunization vs control group, male DBA/IJ mice
Experimental: Collagen-induced arthritis inhibitory test is an experimental model for rheumatoid arthritis reported by Trethan, D. E. et al. [cf. […] J. Immunol., 140, 78-83 (1988)].
Collagen-induced arthritis inhibitory test was carried out according to the method of Kakimoto, K. et al. (cf. above reference of Kakimoto, K. et al.) with slight modification. That is, solubilized bovine cartilage type II collagen (product of Elastine Products, U.S.A.) was emulsified in complete Freund's adjuvant (product of DIFCO Lab., U.S.A.) to give a homogeneous emulsion. Male mice of DBA/IJ strain (6 week-old; product of Nippon Charles River, Japan) were immunized by injection at the base of the tail with 150 μg of the emulsified collagen. Twenty one days after the first immunization, arthritis was induced by a booster immunization of 150 μg of the emulsified collagen prepared in the same manner as above at the base of the tail again. A test compound was orally administered 5 days a week except for Saturdays and Sundays, which was started on the day of the first immunization and continued until the termination of the experiment. Mice were daily observed since the 8th day after the booster immunization for the onset of arthritis, and an arthritic score was derived by grading the severity of involvement of each paw five scales according to the method of Wood, F. D. et al. [cf. Int. Arch. Allergy Appl. The severity of arthritis was estimated by the sum of the scores of all 4 paws of both forepaws and both hind paws, and the onset of the disease was considered when score 1 was observed.
The inhibitory rate was obtained by comparing the score of arthritis on the 52nd day after the first immunization with that of the control group.

male mice of ICR strain = test: Subacute toxicity test (repetitive oral administration for 14 days); format: in vivo; set-up: key to ALT (alanine aminotransferase), significance vs solvent-treated control: −: no significant differences (Student's t-test); +: p < 0.05 (Student's t-test); ++: p < 0.01 (Student's t-test); settings: for ALT (alanine aminotransferase), significance vs solvent-treated control: blood plasma; for ALT (alanine aminotransferase), significance vs solvent-treated control / Other remarks: male ICR mice; for Other remarks: remarks observed during the 14-day oral test; for ALT (alanine aminotransferase) vs vehicle-treated control group (in words) / AST (aspartate aminotransferase) vs vehicle-treated control group / BUN (blood urea nitrogen) vs vehicle-treated control group / wet-weights of various organs such as liver, spleen vs vehicle-treated control group / change in the body weight during the test vs vehicle-treated control group: 14 days oral; for ALT (alanine aminotransferase) vs vehicle-treated control group (in words) / AST (aspartate aminotransferase) vs vehicle-treated control group: parameter for liver dysfunction; for BUN (blood urea nitrogen) vs vehicle-treated control group: parameter for renal dysfunction; for wet-weights of various organs such as liver, spleen vs vehicle-treated control group: weight per body; for change in the body weight during the test vs vehicle-treated control group: even at a high dose of 300 mg/kg
Experimental: Subacute toxicity test was carried out by repetitive administration of a test compound to mice for 14 days. That is, a test compound was orally administered to male mice of ICR strain once a day for 14 days. On the day following the final administration, the mice were anesthetized with Nembutal, and the blood was taken out therefrom, and further various organs were taken out. The wet-weight of each organ was determined, and was converted into a weight per body, and then compared. The blood plasma was subjected to various biochemical tests, mainly to tests for parameters for liver function and renal function. The results of these tests were statistically compared with those in the solvent-treated control group. The data of the biochemical tests, for example, ALT (alanine aminotransferase) as a parameter for liver dysfunction and other remarks observed during the test (see the column of “other remarks” in Table 3) are shown in Table 3.

[2] = dose 100 mg/kg orally once a day for 14 days
[3] = dose 200 mg/kg orally once a day for 14 days
[4] = dose 300 mg/kg orally once a day for 14 days

Compound | Inhibitory rate ([1]; dose 0.3 mg/kg orally) [%] | Inhibitory rate ([1]; dose 1 mg/kg orally) [%] | anti-rheumatoid activity compared with Examples 1 and 2 ([1]; dose 3 mg/kg or less) | Inhibitory rate ([1]; dose 3 mg/kg orally) [%] | anti-rheumatoid activity compared with Examples 1 and 2 ([1]; dose 10 mg/kg) | Inhibitory rate ([1]; dose 10 mg/kg orally) [%] | side effect on liver and kidney (male mice of ICR strain; dose 100 mg/kg) | ALT (alanine aminotransferase), significance vs solvent-treated control (male mice of ICR strain; [2]) | Other remarks (male mice of ICR strain) | inhibitory effects (in words) ([1]; dose 3 mg/kg) | effect on the above parameters (body weight, organ weights, ALT, AST, BUN) (male mice of ICR strain; dose 100 mg/kg) | ALT (alanine aminotransferase), significance vs solvent-treated control (male mice of ICR strain; [3]) | ALT (alanine aminotransferase), significance vs solvent-treated control (male mice of ICR strain; [4]) | effect on the liver (male mice of ICR strain; high dose of 300 mg/kg) | ALT (alanine aminotransferase) vs vehicle-treated control group (in words) (male mice of ICR strain) | AST (aspartate aminotransferase) vs vehicle-treated control group (male mice of ICR strain) | BUN (blood urea nitrogen) vs vehicle-treated control group (male mice of ICR strain) | wet-weights of various organs such as liver, spleen vs vehicle-treated control group (male mice of ICR strain) | change in the body weight during the test vs vehicle-treated control group (male mice of ICR strain)
Cc1nc(-c2ccc(C(F)(F)F)cc2)nc(NCC(=O)N(C)C)c1C [Reference Example B, 2-[5,6-dimethyl-2-(4-trifluoro-methylphenyl)-4-pyrimidinylamino]-N,N-dimethylacetamide] | 0.0 | 41.8 | weaker than the compounds of Example 1 and Example 2 | 63.9 | as potent as the compounds of Example 1 and Example 2 | 97.6 | potent side effect on liver and kidney | ++ (p < 0.01 (Student's t-test)) | peritoneal fluid, renal damage |  |  |  |  |  |  |  |  |  | 
CCCN(CCC)C(=O)CNc1nc(-c2ccc(C(F)(F)F)cc2)nc(C)c1C [Reference Example A, 2-[5,6-dimethyl-2-(4-trifluoro-methylphenyl)-4-pyrimidinylamino]-N,N-dipropylacetamide, reference compound] |  |  |  | 15.5 |  | 73.2 |  | − | no particular remark | hardly showed any inhibitory effects | did not affect | − | + (p < 0.05 (Student's t-test)) | did affect the liver in some degree |  |  |  |  | 
CN(C(=O)CNc1nc(-c2ccc(C(F)(F)F)cc2)nc(-c2ccccc2)c1Cl)C1CC1 [Example 2, 2-[5-chloro-6-phenyl-2-(4-trifluoromethylphenyl)-4-pyrimidinylamino]-N-cyclopropyl-N-methylacetamide] | 29.1 |  |  |  |  | 96.6 |  | − | no particular remark |  |  | − | − |  | not significantly different | not significantly different | not significantly different | not significantly different | not significantly different
CN(C)C(=O)CNc1nc(-c2ccc(C(F)(F)F)cc2)nc(-c2ccccc2)c1Cl [Example 1, 2-[5-chloro-6-phenyl-2-(4-trifluoromethylphenyl)-4-pyrimidinylamino]-N,N-dimethylacetamide] | 20.0 |  |  |  |  | 96.0 |  | − | no particular remark |  |  | − | − |  | not significantly different | not significantly different | not significantly different | not significantly different | not significantly different
